Laboratory results from US11850286B2, “Sulfamide linker, conjugates thereof, and methods of preparation” (priority 2014, dated 2023).

Experiment: Determination of HPLC retention time (RP-HPLC, polarity)
Type: physicochemical
Protocol: Samples of compounds 19-38 were injected on an HPLC system equipped with an Phenomenex Luna C18(2) 5μ, 150×4.6 mm, 100 Å column and eluted with either a gradient of 10% MeCN (0.1% TFA)/90% water (0.1% TFA) to 90% MeCN (0.1% TFA)/10% water (0.1% TFA) or a gradient of 10% MeCN/90% 10 mM potassium phosphate buffer pH 7.4 to 90% MeCN/10% 10 mM potassium phosphate buffer pH 7.4. The retention times obtained for these compounds are depicted in Table 3.

[1] = RP-HPLC C18, MeCN/10 mM potassium phosphate buffer pH 7.4 gradient
[2] = RP-HPLC C18, MeCN/water gradient with 0.1% TFA

SMILES: O=C(CCCCCCNC(=O)OCC1C2CCC#CCCC21)NCc1ccccc1 (centres unmarked) [Compound 19, BCN-Heptanoic Acid Benzylamide]
- retention time [1]: 11.4 min
- retention time [2]: 11.4 min

SMILES: O=C(CCCCCCNC(=O)OCC1C2CCC#CCCC21)NS(=O)(=O)NCc1ccccc1 (centres unmarked) [Compound 20]
- retention time [1]: 9.6 min
- retention time [2]: 11.6 min

SMILES: O=C(NCCCCCOC(=O)NS(=O)(=O)NCc1ccccc1)OCC1C2CCC#CCCC21 (centres unmarked) [Compound 21]
- retention time [1]: 9.2 min
- retention time [2]: 11.6 min

SMILES: CN(C(=O)OCCCCCNC(=O)OCC1C2CCC#CCCC21)S(=O)(=O)NCc1ccccc1 (centres unmarked) [Compound 22]
- retention time [1]: 12.6 min
- retention time [2]: 12.7 min

SMILES: COc1cc2cc(c1Cl)N(C)C(=O)C[C@H](OC(=O)[C@H](C)N(C)C(=O)CCCCCNC(=O)CCOCCOCCOCCOCCNC(=O)OCC1C3CCC#CCCC31)[C@]1(C)O[C@H]1[C@H](C)[C@@H]1C[C@@](O)(NC(=O)O1)[C@H](OC)/C=C/C=C(\C)C2 (some centres unmarked) [Compound 30]
- retention time [1]: 10.6 min
- retention time [2]: 10.5 min

SMILES: COc1cc2cc(c1Cl)N(C)C(=O)C[C@H](OC(=O)[C@H](C)N(C)C(=O)CCCCCNC(=O)CCOCCOCCOCCOCCOCCOCCOCCOCCOCCOCCOCCOCCNC(=O)OCC1C3CCC#CCCC31)[C@]1(C)O[C@H]1[C@H](C)[C@@H]1C[C@@](O)(NC(=O)O1)[C@H](OC)/C=C/C=C(\C)C2 (some centres unmarked) [Compound 31]
- retention time [1]: 10.1 min
- retention time [2]: 10.1 min

SMILES: COc1cc2cc(c1Cl)N(C)C(=O)C[C@H](OC(=O)[C@H](C)N(C)C(=O)CCCCCNC(=O)CCOCCOCCOCCOCCOCCOCCOCCOCCOCCOCCOCCOCCOCCOCCOCCOCCOCCOCCOCCOCCOCCOCCOCCOCCNC(=O)OCC1C3CCC#CCCC31)[C@]1(C)O[C@H]1[C@H](C)[C@@H]1C[C@@](O)(NC(=O)O1)[C@H](OC)/C=C/C=C(\C)C2 (some centres unmarked) [Compound 32]
- retention time [1]: 9.7 min
- retention time [2]: 9.7 min

SMILES: COc1cc2cc(c1Cl)N(C)C(=O)C[C@H](OC(=O)[C@H](C)N(C)C(=O)CCCCCNC(=O)OCc1ccc(NC(=O)[C@H](CCCNC(N)=O)NC(=O)[C@@H](NC(=O)OCCOCCNS(=O)(=O)NC(=O)OCC3C4CCC#CCCC43)C(C)C)cc1)[C@]1(C)O[C@H]1[C@H](C)[C@@H]1C[C@@](O)(NC(=O)O1)[C@H](OC)/C=C/C=C(\C)C2 (some centres unmarked) [Compound 36]
- retention time [1]: 9.3 min
- retention time [2]: 10.4 min

SMILES: COc1cc2cc(c1Cl)N(C)C(=O)C[C@H](OC(=O)[C@H](C)N(C)C(=O)CCCCCNC(=O)OCc1ccc(NC(=O)[C@H](CCCNC(N)=O)NC(=O)[C@@H](NC(=O)OCCN(CCOC(=O)N[C@H](C(=O)N[C@@H](CCCNC(N)=O)C(=O)Nc3ccc(COC(=O)NCCCCCC(=O)N(C)[C@@H](C)C(=O)O[C@H]4CC(=O)N(C)c5cc(cc(OC)c5Cl)C/C(C)=C/C=C/[C@@H](OC)[C@@]5(O)C[C@H](OC(=O)N5)[C@@H](C)[C@@H]5O[C@@]45C)cc3)C(C)C)S(=O)(=O)NC(=O)OCC3C4CCC#CCCC43)C(C)C)cc1)[C@]1(C)O[C@H]1[C@H](C)[C@@H]1C[C@@](O)(NC(=O)O1)[C@H](OC)/C=C/C=C(\C)C2 (some centres unmarked) [Compound 37]
- retention time [1]: 10.5 min
- retention time [2]: 11.2 min

SMILES: COc1cc2cc(c1Cl)N(C)C(=O)C[C@H](OC(=O)[C@H](C)N(C)C(=O)CCCCCNC(=O)OCc1ccc(NC(=O)[C@H](CCCNC(N)=O)NC(=O)[C@@H](NC(=O)OCCN(CCOC(=O)N[C@H](C(=O)N[C@@H](CCCNC(N)=O)C(=O)Nc3ccc(COC(=O)NCCCCCC(=O)N(C)[C@@H](C)C(=O)O[C@H]4CC(=O)N(C)c5cc(cc(OC)c5Cl)C/C(C)=C/C=C/[C@@H](OC)[C@@]5(O)C[C@H](OC(=O)N5)[C@@H](C)[C@@H]5O[C@@]45C)cc3)C(C)C)S(=O)(=O)NC(=O)OCCOCCNS(=O)(=O)NC(=O)OCC3C4CCC#CCCC43)C(C)C)cc1)[C@]1(C)O[C@H]1[C@H](C)[C@@H]1C[C@@](O)(NC(=O)O1)[C@H](OC)/C=C/C=C(\C)C2 (some centres unmarked) [Compound 38]
- retention time [1]: 9.5 min
- retention time [2]: 11.1 min
